Experimental data published in US20200276334A1, “New Therapy for Pompe Disease” (Erasmus University Medical Center Rotterdam, priority 2017, published 2020).
Read-outs that look alike come from different tables or passages of the source.

Legend:
Control 1 iPSCs = experiment: Optimization of CHIR99021 concentration, Control 1 iPSC colonies (confluency, Pax7 staining); format: cell-based, human
Method: (§1) A confluent iPSC culture in a 35 mm dish was incubated for 5 minutes at 37° C. with 2 mg/ml collagenase IV in DMEM/F12, cut into pieces with a 23 gauge needle, detached with a cell scraper and split into a 10 cm dish with a confluency of 40%. After 5 days, differentiation into myogenic progenitor cells (MPCs) was started with myogenic differentiation medium (DMEM/F12, 1% Insulin-Transferrin-Selenium-Ethanolamine, 1% penicillin/streptomycin/L-glutamine) supplemented with 3.5 μM CHIR99021 for 5 days and changed to myogenic differentiation medium supplemented with 20 ng/ml FGF2 (Peprotech. London. UK) for 14 days. The last 16 days, cells were cultured in myogenic differentiation medium only. For FACS purification cells were detached with TrypLE and stained on ice with anti-C-MET-APC (1:50, R&D systems, Minneapolis Minn.) and anti-HNK-1-FITC (1:100, Aviv Systems Biology, San Diego. Calif.) antibodies. Prior to FACS, Hoechst (33258, Life Technologies, Carlsbad, Calif.) was added to stain live cells. The c-MET^+/Hoechst^+/Hnk-1^− fraction was sorted in MPC proliferation medium (DMEM high glucose supplemented with 10% fetal bovine serum, 1% penicillin/streptomycin/L-glutamine and 100 ng/ml FGF2) supplemented with 1× Revitacell supplement (Gibco, Waltham. Mass.). For slightly positive cultures, MPCs were sorted with a maximum sorting time of 20 minutes and pooled into a single well until amount of 20.000 for 96 well, 40.000 for 48 well or 80.000 for 24 well was reached. After 24 hours. MPCs were expanded in MPC proliferation medium or cryopreserved. Further details are described previously (van der Wal et al., 2017).
(§2) Differentiated cells were fixed by adding 1 volume of 4% paraformaldehyde (PFA) (Merck, Kenilworth, N.J.) in PBS to the medium. PFA was incubated for 10 minutes at room temperature and afterwards replaced by PBS. Fixed cells were either stored at 4° C. or directly stained. For staining, cells were permeabilized for 5 minutes with 0.1% Triton X-100 (AppliChem, Darmstadt, Germany) in PBS and blocked for 30 minutes at room temperature in blocking solution (PBS-T (0.1% Tween. Sigma Aldrich, Irvine. UK) with 3% BSA (Sigma Aldrich. Irvine, UK)). Primary antibodies (Table 5) were incubated 1 hour at room temperature and diluted into 0.1% BSA in PBS-T. The unbound first antibody was removed by washing three times for 5 minutes with PBS-T. Secondary antibodies (1:500, Alexa-Fluor-594-α-goat, Alexa-Fluor-488-α-mouse, Alexa-Fluor-594-α-rabbit, Alexa-Fluor-488-α-rabbit, Invitrogen, Carlsbad, Calif. or horse anti-mouse biotin, Vector Laboratories, Burlingame, Calif.) were incubated for 30 minutes at room temperature in PBS-T. When a secondary biotinylated antibody was used cells were washed three times for 5 minutes with PBS-T and incubated with Streptavidine 594 (1:500. Invitrogen, Carlsbad. Calif.,). The cells were subsequently washed two times for 5 minutes with PBS and incubated for 15 minutes with Hoechst (1:15000. Thermo Scientific, Waltham, Mass.). Cells were imaged in PBS.
(§3) The first step of the differentiation procedure from iPSCs into MPCs is the stimulation of the Wnt pathway with CHIR99021. In a previous study on which the current protocol was based. […] In order to define the optimal concentration of CHIR99021 we generated single cells from iPSCs, and incubated these with 10 μM CHIR99021 for 2 days, followed by the differentiation procedure highlighted in FIG. 5. […] Generating single iPSCs in feeder-based culture systems causes massive apoptosis and addition of Rock inhibitor is required (Watanabe et al., 2007). To keep the differentiation protocol applicable for feeder-dependent and feeder-free cultures we decided to further optimize the concentration of CHIR99021 on plated iPSC colonies with a range from 3 to 5 μM CHIR99021, with incubation for 4, 5, 8 or 10 days. […] To avoid toxicity, we used a concentration of 3.5 μM CHIR99021 in our final differentiation protocol.

Control 2 iPSCs = experiment: Optimization of CHIR99021 concentration, Control 2 iPSC colonies (confluency, Pax7 staining); format: cell-based, human
Method: as §1, §2, §3

[1] = tested on: iPSC lines used in this study; experiment: CHIR99021 optimisation for differentiation of iPSCs into myogenic progenitor cells; format: cell-based, human
Method: as §1
The first step of the differentiation procedure from iPSCs into MPCs is the stimulation of the Wnt pathway with CHIR99021. In a previous study on which the current protocol was based. […] In order to define the optimal concentration of CHIR99021 we generated single cells from iPSCs, and incubated these with 10 μM CHIR99021 for 2 days, followed by the differentiation procedure highlighted in FIG. 5. […]

pluripotent stem cells = conditions: cited from earlier work
[2] = cited from earlier work

Cc1cnc(-c2cnc(NCCNc3ccc(C#N)cn3)nc2-c2ccc(Cl)cc2Cl)[nH]1 [CHIR99021, 6-[2-[[4-(2,4-dichlorophenyl)-5-(5-methyl-1H-imidazol-2-yl)pyrimidin-2-yl]amino]ethylamino]pyridine-3-carbonitrile]
Confluency (Control 1 iPSCs; 3 μM CHIR99021, 4 days): 65%
Pax7+ (Control 1 iPSCs; 3 μM CHIR99021, 4 days): + +
Confluency (Control 1 iPSCs; 3 μM CHIR99021, 5 days): 50%
Confluency (Control 1 iPSCs; 3 μM CHIR99021, 8 days): 40%
Confluency (Control 1 iPSCs; 3 μM CHIR99021, 10 days): 40%
Confluency (Control 1 iPSCs; 4 μM CHIR99021, 4 days): 85%
Pax7+ (Control 1 iPSCs; 4 μM CHIR99021, 4 days): + + +
Confluency (Control 1 iPSCs; 4 μM CHIR99021, 5 days): 100%
Pax7+ (Control 1 iPSCs; 4 μM CHIR99021, 5 days): + + +
Confluency (Control 1 iPSCs; 4 μM CHIR99021, 8 days): 75%
Confluency (Control 1 iPSCs; 4 μM CHIR99021, 10 days): 50%
Pax7+ (Control 1 iPSCs; 4 μM CHIR99021, 10 days): + +
Confluency (Control 1 iPSCs; 5 μM CHIR99021, 4 days): 60%
Pax7+ (Control 1 iPSCs; 5 μM CHIR99021, 4 days): + +
Confluency (Control 1 iPSCs; 5 μM CHIR99021, 5 days): 70%
Pax7+ (Control 1 iPSCs; 5 μM CHIR99021, 5 days): + + +
Confluency (Control 1 iPSCs; 5 μM CHIR99021, 8 days): 0%
Confluency (Control 1 iPSCs; 5 μM CHIR99021, 10 days): 0%
Confluency (Control 2 iPSCs; 3 μM CHIR99021, 4 days): 95%
Confluency (Control 2 iPSCs; 3 μM CHIR99021, 5 days): 100%
Confluency (Control 2 iPSCs; 3 μM CHIR99021, 8 days): 90%
Confluency (Control 2 iPSCs; 3 μM CHIR99021, 10 days): 95%
Confluency (Control 2 iPSCs; 4 μM CHIR99021, 4 days): 95%
Pax7+ (Control 2 iPSCs; 4 μM CHIR99021, 4 days): + +
Confluency (Control 2 iPSCs; 4 μM CHIR99021, 5 days): 95%
Pax7+ (Control 2 iPSCs; 4 μM CHIR99021, 5 days): + +
Confluency (Control 2 iPSCs; 4 μM CHIR99021, 8 days): 95%
Pax7+ (Control 2 iPSCs; 4 μM CHIR99021, 8 days): + +
Confluency (Control 2 iPSCs; 4 μM CHIR99021, 10 days): 85%
Confluency (Control 2 iPSCs; 5 μM CHIR99021, 4 days): 95%
Confluency (Control 2 iPSCs; 5 μM CHIR99021, 5 days): 95%
Pax7+ (Control 2 iPSCs; 5 μM CHIR99021, 5 days): + +
Confluency (Control 2 iPSCs; 5 μM CHIR99021, 8 days): 50%
Confluency (Control 2 iPSCs; 5 μM CHIR99021, 10 days): 30%
Pax7 staining, amount of Pax7-positive areas in the culture ([1]; control 1 and control 2 iPSCs, 4 μM CHIR99021 for 5 days, range tested 3 to 5 μM for 4, 5, 8 or 10 days): highest amount of Pax7-positive areas
concentration resulting in higher toxicity levels and more variable response among iPSC lines ([1]; plated iPSC colonies): > 4 µM
Pax7 positive cells after 40 days of differentiation ([1]; single cells from iPSCs, 10 μM CHIR99021 for 2 days): Pax7 positive cells were observed
induction of paraxial mesoderm (pluripotent stem cells; 10 μM CHIR99021 incubated for 2 days, Shelton et al., 2014): better induction of paraxial mesoderm
concentration at which toxicity was described (pluripotent stem cells; Borchin et al., 2013): higher than 3 μM

recombinant human GAA: recombinant human acid α-glucosidase used for enzyme replacement therapy
half life ([2]; in blood): 2 to 3 h
half life ([2]; in cells): several days
